# In US11554124B2, “Hematopoiesis-enhancing agent” (priority 2018, dated 2023):
# How the values were obtained:
# [1] = system: trimethylation of lysine 9 of histone H3 (H3K9me3); test: Western blot of H3K9me3 in bone marrow erythroblast subset II; type: in vivo, mouse; settings: CLEU, BM erythroblast subset II, Day 2, vs PBS
# Description: FIG. 4 is the experimental result showing that epigenetic demethylation induces the final maturation of erythroblasts. Panel A: WGBS (whole genome bisulfite sequencing) results of bone marrow erythroblast subset II harvested from CLEU or PBS treated mouse (Day 2) (CLEU; n=2, PBS; n=2). Panel B: Difference in expression levels versus difference in CpG methylation of the promoter for all expressed genes (at least one of FPKM>10 and CV<0.5). The correlation (Cor) was −0.08. […] The correlation (Cor) was −0.11. Panel D: Images (photographs) showing western blot (WB) results of trimethylation of lysine 9 of histone H3 (H3K9me3) on bone marrow erythroblast subset II harvested from CLEU or PBS treated mouse (Day 2). Panels E-G: In vitro red blood cell differentiation of Human CD34^+ cord blood cells. Panel E: Representative results of flow cytometric analysis. Panel F: Cumulative results for the indicated cell population. Panel G: Cumulative results for CD34 EMI (CD34 red blood cell maturation index: CD71^+ GlyA^+/CD71^+ GlyA^−). Each point shown in the box plots represents each technical replicate. Asterisk indicates P<0.001.
# (§1) The overall transcriptional changes observed as above could be attributed to epigenetic modification changes due to the reduced abundance of intracellular SAM (Panel A of FIG. 2). […]
# DNA CpG methylation = test: Whole genome bisulfite sequencing (WGBS) of bone marrow erythroblast subset II; type: in vivo, mouse; settings: CLEU, BM erythroblast subset II, Day 2, vs PBS
# Description: DNA was isolated by using phenol/chloroform extraction from sorted sample of bone marrow subset II erythroblasts (PBS; n=2, CLEU; n=2). DNA quality control, bisulfite conversion, library preparation, high-throughput sequencing, and data mapping were performed at Macrogen, Inc. Briefly, TruSeq DNA Methylation Kit and EZ DNA Methylation Gold (Illumina and Zymo Research) were used for library preparation according to the manufacturer's protocol (TruSeq DNA Methylation Library Preparation Guide), followed by high-throughput sequencing by HiseqX (Illumina). After the sequencing run, the raw sequence reads were filtered based on quality, and the adapter sequences were trimmed off. The remaining reads are mapped to the reference genome (mm9) using BSMAP based on SOAP (Short Oligo Alignment Program). SAMBAMBA version 0.5.9 was used to remove index and PCR duplicates, and to select reads with modification. Methylation level was calculated for every single cytosine from mapping results using BSMAP version 2.87. Only cytosine positions with >=5 reads coverage were used for further analysis.
# as §1
structure (smiles),measurement,setting,value
"NC1(C(=O)O)CCCC1 [CLEU, cycloleucine]",trimethylation of H3K9,[1],decreased
same,reduction of DNA CpG methylation overall,DNA CpG methylation,about 2%
